Experiments:
[1] = molecular target: T1, DGKζ (Homo sapiens, UniProt Q13574); assay: DGKζ biochemical assay (ADP-Glo); settings: read-out: DGK ζ IC50
T1 construct: purchased Carna 12-110
Experimental: (§1) Compounds of the present invention were prepared into 10 mM DMSO solution and 10 nL of stock was transferred into 384 plates (Optiplate 384 plate) using Echo550. DMSO was used as high control, and ATP substrate buffer was used as a low control. A 1× enzyme assay buffer was prepared (Hepes, pH 7.0 25 mM, BSA 0.05%, Triton-X100 0.002%, CaCl2) 1 μM, MgCl2 10 mM, DTT 2 mM). […] OAG (1-oleoyl-2-acetyl-sn-glycerol, 25 mg/ml, Avanti 8001000) and PS (10 mg/ml, Avanti 840032P) were mixed at the ratio of 1:2. A 1× substrate solution was prepared with 1× assay buffer by 100-fold dilution. The substrate solution was sonicated on ice for 1 min. The pure ATP was added to the substrate solution (DGKα:400 μM). 5 μL of the enzyme solution were added to the 384 well plate, and the plate was spun for 1 min at 1000 rpm and incubated for 30 mins at RT. 5 μL of 1× substrate solution were added to the 384 well plate, the plate was spun and then incubated for 45 mins at RT. 10 μL ADP-Glo […] was added to stop the assay. After 60 mins at RT, 20 μL ADP-Glo Detection buffer was added as the final step. Plate was read after 45 min incubation at RT.
(§2) Data analysis was performed by calculating the […] using following the formula:
(§3) [formula] • High control (Hc): DMSO/DGKα(DGKζ)/Substrate/ATP/ADP-Glo • Low Control (Lc): ATP/ADP-Glo

[2] = molecular target: DGKα (Homo sapiens, UniProt P23743); assay: DGKα biochemical assay (ADP-Glo); settings: read-out: DGK α IC50
DGKα, sequence (P23743 whole entry): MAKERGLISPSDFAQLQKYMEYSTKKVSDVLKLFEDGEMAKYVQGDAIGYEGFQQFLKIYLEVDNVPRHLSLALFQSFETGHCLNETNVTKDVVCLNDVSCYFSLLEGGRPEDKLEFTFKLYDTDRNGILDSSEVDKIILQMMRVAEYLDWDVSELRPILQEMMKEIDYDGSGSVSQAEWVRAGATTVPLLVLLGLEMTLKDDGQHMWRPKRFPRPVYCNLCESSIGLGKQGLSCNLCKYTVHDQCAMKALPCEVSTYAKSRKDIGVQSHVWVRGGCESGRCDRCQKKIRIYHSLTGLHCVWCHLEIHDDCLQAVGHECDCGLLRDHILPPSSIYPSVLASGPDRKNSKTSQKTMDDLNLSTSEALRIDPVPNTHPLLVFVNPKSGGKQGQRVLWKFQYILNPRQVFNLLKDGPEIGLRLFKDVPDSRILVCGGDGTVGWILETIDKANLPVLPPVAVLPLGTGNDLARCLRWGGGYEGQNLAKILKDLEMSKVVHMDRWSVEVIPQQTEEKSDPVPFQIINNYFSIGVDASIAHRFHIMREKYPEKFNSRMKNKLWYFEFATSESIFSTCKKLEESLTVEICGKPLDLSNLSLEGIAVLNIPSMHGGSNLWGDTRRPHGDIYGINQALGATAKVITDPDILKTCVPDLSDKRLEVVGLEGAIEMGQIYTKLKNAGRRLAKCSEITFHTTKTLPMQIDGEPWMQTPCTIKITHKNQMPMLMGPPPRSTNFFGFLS
Experimental: as §1, §2, §3

T1 sequence (Q13574 1-929 isoform Q13574-4): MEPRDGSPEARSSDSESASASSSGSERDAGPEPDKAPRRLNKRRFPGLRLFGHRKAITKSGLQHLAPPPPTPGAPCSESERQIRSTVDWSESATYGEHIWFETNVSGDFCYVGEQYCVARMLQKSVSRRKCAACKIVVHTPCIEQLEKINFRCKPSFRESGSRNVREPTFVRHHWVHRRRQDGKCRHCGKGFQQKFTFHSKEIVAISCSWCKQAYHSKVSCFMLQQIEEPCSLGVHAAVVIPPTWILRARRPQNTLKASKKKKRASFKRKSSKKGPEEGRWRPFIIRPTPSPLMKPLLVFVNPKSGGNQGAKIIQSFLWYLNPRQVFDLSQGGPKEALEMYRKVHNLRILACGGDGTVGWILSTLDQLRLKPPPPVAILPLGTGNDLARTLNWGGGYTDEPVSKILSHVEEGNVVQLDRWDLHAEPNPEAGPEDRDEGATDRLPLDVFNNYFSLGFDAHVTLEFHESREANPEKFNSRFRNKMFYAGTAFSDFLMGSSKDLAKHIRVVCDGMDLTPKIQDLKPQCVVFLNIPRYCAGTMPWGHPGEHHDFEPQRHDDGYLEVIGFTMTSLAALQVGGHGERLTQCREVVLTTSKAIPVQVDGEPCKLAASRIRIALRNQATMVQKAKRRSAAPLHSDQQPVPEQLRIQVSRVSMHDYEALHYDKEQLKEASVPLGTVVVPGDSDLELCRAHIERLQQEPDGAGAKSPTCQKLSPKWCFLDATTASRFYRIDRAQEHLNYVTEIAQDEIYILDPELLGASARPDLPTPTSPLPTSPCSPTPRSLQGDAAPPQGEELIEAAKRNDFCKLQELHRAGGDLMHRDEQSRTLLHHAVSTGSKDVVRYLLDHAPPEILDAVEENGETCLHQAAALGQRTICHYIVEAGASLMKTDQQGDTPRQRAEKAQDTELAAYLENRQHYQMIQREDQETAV

Row | IC50 [1] [µM] | IC50 [2] [µM] | SMILES
1 | ≥ 1 | ≥ 1 | Cc1[nH]c2ccccc2c1C(=O)N[C@H]1CC[C@H](N(CC2CC2)c2ccccc2)CC1 [Example 4B]
2 | 0.1 to 1 | 0.01 to 0.1 | COc1ccc(N(C2CC2)[C@H]2CC[C@H](N(C)c3c(C#N)c(=O)n(C)c4ccc(Cl)nc34)CC2)nc1 [Example 3J, trans-6-chloro-4-((4-(cyclopropyl(5-methoxypyridin-2-yl)amino)cyclohexyl)(methyl)amino)-1-methyl-2-oxo-1,2-dihydro-1,5-naphthyridine-3-carbonitrile]
3 | ≥ 1 | ≥ 1 | COc1cccc(N(CC2CC2)[C@H]2CC[C@H](N(C)c3cc(=O)n(C)c4ccc(C#N)nc34)CC2)c1 [Example 14, trans-8-((4-((cyclopropylmethyl)(3-methoxyphenyl)amino)cyclohexyl)(methyl)amino)-5-methyl-6-oxo-5,6-dihydro-1,5-naphthyridine-2-carbonitrile]
4 | ≥ 1 | ≥ 1 | O=C(N[C@H]1CC[C@@H](N(CC2CC2)c2ccccc2)CC1)c1cnn2cccnc12 [Example 4G, cis-N-(4-((Cyclopropylmethyl)(phenyl)amino)cyclohexyl) pyrazolo[1,5-a]pyrimidine-3-carboxamide]
5 | ≥ 1 | 0.01 to 0.1 | Cn1c(=O)cc(N(C)[C@H]2CC[C@@H](N(CC3CC3)c3ccc(Cl)cc3)CC2)c2nc(C#N)ccc21 [Example 7, cis-8-((4-((4-chlorophenyl)(cyclopropylmethyl)amino)cyclohexyl)(methyl)amino)-5-methyl-6-oxo-5,6-dihydro-1,5-naphthyridine-2-carbonitrile]
6 | ≥ 1 | 0.01 to 0.1 | Cn1c(=O)cc(N(C)[C@H]2CC[C@@H](N(CC3CC3)c3cccc(F)c3)CC2)c2nc(C#N)ccc21 [Example 24, cis-8-((4-((cyclopropylmethyl)(3-fluorophenyl)amino)cyclohexyl)(methyl)amino)-5-methyl-6-oxo-5,6-dihydro-1,5-naphthyridine-2-carbonitrile]
7 | 0.1 to 1 | ≥ 1 | Cn1c(=O)c(C#N)c(N(C)[C@H]2CC[C@H](N(CC3CC3)c3ccc4c(c3)OCO4)CC2)c2nc(C#N)ccc21 [Example 79]
8 | 0.01 to 0.1 | 0.1 to 1 | COc1cc(F)ccc1N(CC1CCC1)[C@H]1CC[C@H](N(C)c2c(C#N)c(=O)n(C)c3ccc(C#N)nc23)CC1 [Example 120, trans-8-((-4-((cyclobutylmethyl)(4-fluoro-2-methoxyphenyl)amino)cyclohexyl)(methyl)amino)-5-methyl-6-oxo-5,6-dihydro-1,5-naphthyridine-2,7-dicarbonitrile]
9 | 0.1 to 1 | < 0.01 | Cn1c(=O)c(C#N)c(N(C)[C@H]2CC[C@@H](N(c3ccc(F)cc3)C3CC3)CC2)c2nc(C#N)ccc21 [Example 50, cis-8-((4-(cyclopropyl(4-fluorophenyl)amino)cyclohexyl)(methyl)amino)-5-methyl-6-oxo-5,6-dihydro-1,5-naphthyridine-2,7-dicarbonitrile]
10 | ≥ 1 | 0.01 to 0.1 | Cn1c(=O)c(C#N)c(N(C)[C@H]2CC[C@H](N(CC3CCC3)c3ccc(F)cc3C(F)F)CC2)c2nc(C#N)ccc21 [Example 179, trans-8-((-4-((cyclobutylmethyl)(2-(difluoromethyl)-4-fluorophenyl)amino)cyclohexyl)(methyl)amino)-5-methyl-6-oxo-5,6-dihydro-1,5-naphthyridine-2,7-dicarbonitrile]
11 | 0.01 to 0.1 | 0.1 to 1 | COc1cc(N(CC2CC2)[C@H]2CC[C@@H](N(C)c3cc(=O)n(C)c4ccc(C#N)nc34)CC2)cc(OC)c1F [Example 124, cis-8-((-4-((cyclopropylmethyl)(4-fluoro-3,5-dimethoxyphenyl)amino)cyclohexyl)(methyl)amino)-5-methyl-6-oxo-5,6-dihydro-1,5-naphthyridine-2-carbonitrile]
12 | 0.1 to 1 | 0.1 to 1 | Cc1cc(F)cc(N(CC2CC2)[C@H]2CC[C@H](N(C)c3c(C#N)c(=O)n(C)c4ccc(C#N)nc34)CC2)c1 [Example 87]
13 | 0.1 to 1 | ≥ 1 | Cc1ccc(F)cc1N(CC1CC1)[C@H]1CC[C@H](N(C)c2c(C#N)c(=O)n(C)c3ccc(Cl)nc23)CC1 [Example 118, trans-6-chloro-4-((4-((cyclopropylmethyl)(5-fluoro-2-methylphenyl)amino)cyclohexyl)(methyl)amino)-1-methyl-2-oxo-1,2-dihydro-1,5-naphthyridine-3-carbonitrile]
14 | 0.1 to 1 | 0.1 to 1 | Cc1ccc(N(CC2CCOC2)[C@H]2CC[C@@H](N(C)c3cc(=O)n(C)c4ccc(C#N)nc34)CC2)cc1OC(F)F (stereo partly drawn) [Example 162, cis-8-((-4-((3-(difluoromethoxy)-4-methylphenyl) ((tetrahydrofuran-3-yl)methyl)amino)cyclohexyl) (methyl)amino)-5-methyl-6-oxo-5,6-dihydro-1,5-naphthyridine-2-carbonitrile]
15 | ≥ 1 | ≥ 1 | Cn1c(=O)cc(N(C)[C@H]2CC[C@H](N(CC3COC3)c3ccc(F)cc3O)CC2)c2nc(C#N)ccc21 [Example 3BB, trans-8-((4-((4-fluoro-2-hydroxyphenyl)(oxetan-3-ylmethyl)amino)cyclohexyl)(methyl)amino)-5-methyl-6-oxo-5,6-dihydro-1,5-naphthyridine-2-carbonitrile]
16 | 0.1 to 1 | 0.01 to 0.1 | COc1cc(N(CC2CC2)[C@H]2CC[C@H](N(C)c3c(C#N)c(=O)n(C)c4ccc(Cl)nc34)CC2)ccc1F [Example 39, trans-6-chloro-4-((4-((cyclopropylmethyl)(4-fluoro-3-methoxyphenyl)amino)cyclohexyl)(methyl)amino)-1-methyl-2-oxo-1,2-dihydro-1,5-naphthyridine-3-carbonitrile]
17 | 0.1 to 1 | 0.1 to 1 | Cn1c(=O)c(C#N)c(N(C)[C@H]2CC[C@H](N(CC3CCOCC3)c3ccc(F)cc3)CC2)c2nc(C#N)ccc21 [Example 59, trans-8-((-4-((4-fluorophenyl)((tetrahydro-2H-pyran-4-yl)methyl)amino)cyclohexyl)(methyl)amino)-5-methyl-6-oxo-5,6-dihydro-1,5-naphthyridine-2,7-dicarbonitrile]
18 | 0.1 to 1 | 0.1 to 1 | Cc1ccc(N(CC2CCC2)[C@H]2CC[C@H](N(C)c3c(C#N)c(=O)n(C)c4ccc(C#N)nc34)CC2)cc1 [Example 129, trans-8-((-4-((cyclobutylmethyl)(p-tolyl)amino)cyclohexyl)(methyl)amino)-5-methyl-6-oxo-5,6-dihydro-1,5-naphthyridine-2,7-dicarbonitrile]
19 | ≥ 1 | ≥ 1 | Cc1cc(F)cc(N(CC2CC2)[C@H]2CC[C@H](N(C)c3cc(=O)n(C)c4ccc(C#N)nc34)CC2)c1 [Example 89]
20 | 0.01 to 0.1 | 0.01 to 0.1 | Cn1c(=O)c(C#N)c(N(C)[C@H]2CC[C@@H](N(CC3CC3)c3cc(F)cc(F)c3)CC2)c2nc(C#N)ccc21 [Example 81]
21 | 0.01 to 0.1 | ≥ 1 | Cc1ccccc1N(CC1CC1)[C@H]1CC[C@H](N(C)c2c(C#N)c(=O)n(C)c3ccc(C#N)nc23)CC1 [Example 71, trans-8-((4-((cyclopropylmethyl)(o-tolyl)amino)cyclohexyl)(methyl)amino)-5-methyl-6-oxo-5,6-dihydro-1,5-naphthyridine-2,7-dicarbonitrile]
